# Measured values from EP2308883A1, “New derivatives of thieno[2,3-b]pyridine and 5,6,7,8 tetrahydrothieno[2,3 b]quinoline in particular useful in the treatment of malaria” (priority 2009, dated 2011).
# Experiments:
# Assay in all cases: Species specificity: recombinant tagged GSK-3 orthologue kinase assay
# GSK-3 α = molecular target: T1, GSK-3 α (Homo sapiens, UniProt P49840); type: biochemical; conditions: calculated from dose-response curves; -(100) taken as no inhibition at 100
# T1 construct: made in house
# T1 sequence (P49840 whole entry): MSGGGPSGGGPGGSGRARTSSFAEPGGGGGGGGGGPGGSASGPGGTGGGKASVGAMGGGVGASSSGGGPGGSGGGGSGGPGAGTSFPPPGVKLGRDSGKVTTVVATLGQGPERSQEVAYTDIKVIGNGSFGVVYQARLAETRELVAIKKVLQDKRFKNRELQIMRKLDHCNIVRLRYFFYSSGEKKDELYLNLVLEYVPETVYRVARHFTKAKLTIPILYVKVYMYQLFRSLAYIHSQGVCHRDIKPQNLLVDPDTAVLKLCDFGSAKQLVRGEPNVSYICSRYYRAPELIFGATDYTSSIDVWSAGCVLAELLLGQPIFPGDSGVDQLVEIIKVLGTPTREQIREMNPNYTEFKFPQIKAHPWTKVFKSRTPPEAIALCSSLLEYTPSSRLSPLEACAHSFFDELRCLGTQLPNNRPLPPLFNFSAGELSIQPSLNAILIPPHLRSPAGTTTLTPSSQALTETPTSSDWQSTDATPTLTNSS
# Text: (§1) Given the strong conservation of GSK-3 across evolution and the surprising selectivity of the compounds according to the present invention towards PfGSK-3 versus mammalian GSK-3, a selection of 12 GSK-3 orthologues of various species chosen on the "tree of life" analyzed. The species belong to the Apicomplexa (P. falciparum, P. vivax, P. knowlesi and P. berghei (Gardner, M.J. et al. Genome sequence of the human malaria parasite Plasmodium falciparum. Nature 419, 498-511 (2002); Carlton, J.M. et al. Comparative genomics of the neglected human malaria parasite Plasmodium vivax. Nature 455, 799-803 (2008); Pain, A. et al. The genome of the simian and human malaria parasite Plasmodium knowlesi. Nature 455, 799-803 (2008).). Toxoplasma gondii (Qin, C.L., Tang, J. and Kim, K. Cloning and in vitro expression of TPK3, a Toxoplasma gondii homologue of shaggy/glycogen synthase kinase-3 kinases. Mol. Biochem. Parasitol. 93, 273-283 (1998)), Cryptosporidium parvum.
# (§2) Following PCR amplification from cDNA libraries or direct synthesis based on databases sequences, the GSK-3 genes were inserted in appropriate expression vectors and recombinant, tagged kinases were expressed, affinity purified and assayed in the presence of up to 10-100µM of each compound of formula (I) according to the present invention and a selection of the PfGSK-3 inhibitors.
# GSK-3 [1] = molecular target: T2, GSK-3 (Plasmodium falciparum, UniProt O77344); type: biochemical
# T2 construct: made in house
# T2 sequence (O77344 entry or part of it): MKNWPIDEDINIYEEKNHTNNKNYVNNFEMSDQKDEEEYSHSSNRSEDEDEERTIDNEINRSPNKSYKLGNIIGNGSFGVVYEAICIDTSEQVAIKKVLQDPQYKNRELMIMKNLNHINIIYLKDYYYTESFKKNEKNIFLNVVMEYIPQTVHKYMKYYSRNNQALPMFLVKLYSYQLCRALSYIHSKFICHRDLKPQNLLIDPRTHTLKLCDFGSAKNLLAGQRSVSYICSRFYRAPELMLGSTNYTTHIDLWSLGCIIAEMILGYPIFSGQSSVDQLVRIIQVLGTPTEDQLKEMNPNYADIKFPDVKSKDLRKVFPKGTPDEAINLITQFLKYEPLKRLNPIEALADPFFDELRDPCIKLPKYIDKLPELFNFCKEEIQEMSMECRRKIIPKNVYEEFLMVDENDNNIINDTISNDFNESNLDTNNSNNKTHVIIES
# Text: as §1, §2
# GSK-3 α/β = type: biochemical; conditions: calculated from dose-response curves; -(100) taken as no inhibition at 100; read-out: IC50 Sus scrofa (GSK-3 α/β)
# Text: as §1, §2
# GSK-3 [2] = molecular target: T3, GSK-3 (Dictyostelium discoideum, UniProt P51136); type: biochemical
# T3 construct: made in house
# T3 sequence (P51136 whole entry): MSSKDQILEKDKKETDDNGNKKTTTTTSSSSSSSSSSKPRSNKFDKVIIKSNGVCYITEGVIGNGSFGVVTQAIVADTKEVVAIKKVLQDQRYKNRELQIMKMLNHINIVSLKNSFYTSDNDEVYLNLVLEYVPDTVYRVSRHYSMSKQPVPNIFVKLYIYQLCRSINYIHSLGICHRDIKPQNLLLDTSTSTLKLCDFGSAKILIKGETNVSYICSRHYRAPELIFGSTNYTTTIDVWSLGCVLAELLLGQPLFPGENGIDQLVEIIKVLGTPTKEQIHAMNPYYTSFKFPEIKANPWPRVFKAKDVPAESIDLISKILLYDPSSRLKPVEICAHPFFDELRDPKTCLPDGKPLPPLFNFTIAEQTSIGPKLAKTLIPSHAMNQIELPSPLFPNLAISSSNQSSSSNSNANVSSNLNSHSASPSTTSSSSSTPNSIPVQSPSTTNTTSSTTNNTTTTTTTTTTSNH
# Text: as §1, §2
# GSK-3 [3] = molecular target: T4, GSK-3 (Cryptosporidium parvum, UniProt A3FQN0); type: biochemical
# T4 sequence (A3FQN0 1-433): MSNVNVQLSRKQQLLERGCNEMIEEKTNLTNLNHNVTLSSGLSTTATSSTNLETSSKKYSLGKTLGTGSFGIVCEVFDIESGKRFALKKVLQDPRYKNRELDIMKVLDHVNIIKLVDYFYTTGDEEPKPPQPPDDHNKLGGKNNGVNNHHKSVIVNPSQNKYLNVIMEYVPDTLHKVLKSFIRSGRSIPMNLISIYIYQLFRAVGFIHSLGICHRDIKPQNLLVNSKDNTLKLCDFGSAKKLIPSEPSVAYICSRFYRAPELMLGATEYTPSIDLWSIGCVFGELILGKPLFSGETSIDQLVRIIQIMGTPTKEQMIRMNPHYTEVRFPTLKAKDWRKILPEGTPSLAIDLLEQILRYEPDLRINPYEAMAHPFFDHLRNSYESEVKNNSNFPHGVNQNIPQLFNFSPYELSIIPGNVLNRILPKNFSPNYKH
# GSK-3 [4] = molecular target: T5, GSK-3 (Plasmodium knowlesi, UniProt A0A679KU36); type: biochemical; conditions: read-out: IC50 Plasmodium knowlesi; calculated from dose-response curves
# T5 sequence (A0A679KU36 1-473): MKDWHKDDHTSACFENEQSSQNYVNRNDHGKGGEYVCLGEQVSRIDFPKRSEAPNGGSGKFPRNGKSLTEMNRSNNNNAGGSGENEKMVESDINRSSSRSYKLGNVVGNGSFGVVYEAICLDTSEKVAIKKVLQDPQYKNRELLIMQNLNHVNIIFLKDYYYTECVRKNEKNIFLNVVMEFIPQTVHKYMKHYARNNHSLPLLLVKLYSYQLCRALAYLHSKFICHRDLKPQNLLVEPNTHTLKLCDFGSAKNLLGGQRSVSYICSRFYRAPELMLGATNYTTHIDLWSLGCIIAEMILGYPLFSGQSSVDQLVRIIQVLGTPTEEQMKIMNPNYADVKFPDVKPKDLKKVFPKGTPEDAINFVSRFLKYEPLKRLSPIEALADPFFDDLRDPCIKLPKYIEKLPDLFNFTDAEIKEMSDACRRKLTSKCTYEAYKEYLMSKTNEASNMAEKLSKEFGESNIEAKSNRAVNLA
# GSK-3 [5] = molecular target: T6, GSK-3 (Toxoplasma gondii, UniProt O44002); type: biochemical, Toxaplasma grondii
# T6 sequence (O44002 1-394): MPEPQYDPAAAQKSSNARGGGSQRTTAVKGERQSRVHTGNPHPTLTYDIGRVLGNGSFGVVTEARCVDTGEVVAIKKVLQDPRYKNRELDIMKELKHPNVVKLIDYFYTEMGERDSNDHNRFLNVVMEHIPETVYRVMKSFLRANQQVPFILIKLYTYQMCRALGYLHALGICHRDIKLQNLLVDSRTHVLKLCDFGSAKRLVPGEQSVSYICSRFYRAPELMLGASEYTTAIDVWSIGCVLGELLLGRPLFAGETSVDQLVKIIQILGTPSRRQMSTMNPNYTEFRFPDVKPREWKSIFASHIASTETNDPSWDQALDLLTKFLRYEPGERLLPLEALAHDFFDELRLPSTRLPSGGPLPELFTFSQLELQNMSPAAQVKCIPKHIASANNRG
# GSK-3 [6] = molecular target: T7, GSK-3 (Leishmania major, UniProt Q4QE15); type: biochemical, Leishmania majo
# T7 construct: made in house
# T7 sequence (Q4QE15 entry or part of it): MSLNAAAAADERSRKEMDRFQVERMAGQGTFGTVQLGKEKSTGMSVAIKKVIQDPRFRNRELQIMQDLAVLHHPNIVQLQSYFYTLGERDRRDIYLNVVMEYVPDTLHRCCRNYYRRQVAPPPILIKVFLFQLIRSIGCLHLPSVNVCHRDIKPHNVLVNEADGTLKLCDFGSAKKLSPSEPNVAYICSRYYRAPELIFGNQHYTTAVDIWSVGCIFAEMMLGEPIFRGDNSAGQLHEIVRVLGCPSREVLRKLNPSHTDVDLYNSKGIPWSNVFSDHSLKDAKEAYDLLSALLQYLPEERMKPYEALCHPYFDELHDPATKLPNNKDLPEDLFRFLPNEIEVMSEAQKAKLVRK
# Text: as §1, §2
# GSK-3 [7] = molecular target: T8, GSK-3 (Trypanosoma cruzi, UniProt Q4E1X0); type: biochemical; conditions: read-out: IC50 Trypanopsoma cruzi; calculated from dose-response curves; -(100) taken as no inhibition at 100
# T8 sequence (Q4E1X0 1-353): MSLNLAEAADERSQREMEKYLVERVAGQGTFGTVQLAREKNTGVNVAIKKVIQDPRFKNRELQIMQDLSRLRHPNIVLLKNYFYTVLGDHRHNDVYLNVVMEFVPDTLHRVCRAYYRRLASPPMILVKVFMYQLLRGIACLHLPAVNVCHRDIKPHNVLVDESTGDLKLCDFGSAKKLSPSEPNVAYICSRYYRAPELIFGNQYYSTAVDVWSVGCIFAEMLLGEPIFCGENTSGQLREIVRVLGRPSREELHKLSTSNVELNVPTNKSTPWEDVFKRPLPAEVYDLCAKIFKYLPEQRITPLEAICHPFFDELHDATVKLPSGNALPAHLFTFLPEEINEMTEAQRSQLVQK
# GSK-3 [8] = molecular target: T9, GSK-3 (Leishmania donovani, UniProt A6N857); type: biochemical; conditions: read-out: IC50 Leishmania donovani; calculated from dose-response curves
# T9 sequence (A6N857 1-355): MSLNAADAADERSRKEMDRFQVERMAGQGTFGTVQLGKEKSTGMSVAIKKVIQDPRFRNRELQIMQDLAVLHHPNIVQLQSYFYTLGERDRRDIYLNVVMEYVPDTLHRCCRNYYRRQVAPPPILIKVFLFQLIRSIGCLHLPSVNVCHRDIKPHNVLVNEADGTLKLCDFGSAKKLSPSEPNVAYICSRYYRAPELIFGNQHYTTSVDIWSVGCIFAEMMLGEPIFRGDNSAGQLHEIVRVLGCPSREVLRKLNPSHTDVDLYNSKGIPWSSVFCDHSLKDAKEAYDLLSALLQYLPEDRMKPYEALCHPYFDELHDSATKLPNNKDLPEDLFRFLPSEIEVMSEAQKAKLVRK
smiles,measurement,setting,value
"N#Cc1c(N)nc2sc(C(=O)c3ccc(Cl)cc3)c(N)c2c1-c1ccccc1I [Compound 1, 3,6-diamino-2-(4-chlorobenzoyl)-4-(2-iodophenyl)thieno[2,3-b]pyridine-5-carbonitrile]",IC50,GSK-3 α,> 100 µM
same,IC50,GSK-3 [1],1.9 µM
same,IC50,GSK-3 α/β,> 100 µM
same,IC50,GSK-3 [2],> 100 µM
same,IC50,GSK-3 [3],> 100 µM
same,IC50,GSK-3 [4],15.5 µM
same,IC50,GSK-3 [5],> 100 µM
same,IC50,GSK-3 [6],> 100 µM
same,IC50,GSK-3 [7],> 100 µM
same,IC50,GSK-3 [8],80 µM
